In patent US8623879B2, “1-heterocyclyl-1,5-dihydro-pyrazolo[3,4-D] pyrimidin-4-one derivates and their use as PDE9A modulators” (Boehringer Ingelheim International GmbH, priority 2008, dated 2014):

Target: T1, human PDE9A2 (Homo sapiens, UniProt O76083)
T1 construct: made in house; host or cells: Sf9 insect cells (infected); crude lysate used as enzyme source
Test: PDE9A2 enzymatic activity assay (scintillation proximity assay, SPA)
Type: biochemical
Details: for inhibition at 10 µM: read-out: % inhibition of PDE9A2 (at 10 micromolar concentration), 10 micromolar concentration; for inhibition at 10 µM / % inhibition of PDE9A2 (at 10 micromolar concentration): values above 100% adjusted to 100%; for IC50: reported only as range 1-100 or 101-1200 nanomolar, specific value lies within range, read-out: IC50 within range [nanomolar (nM)]

T1 sequence (O76083 1-533 isoform O76083-2): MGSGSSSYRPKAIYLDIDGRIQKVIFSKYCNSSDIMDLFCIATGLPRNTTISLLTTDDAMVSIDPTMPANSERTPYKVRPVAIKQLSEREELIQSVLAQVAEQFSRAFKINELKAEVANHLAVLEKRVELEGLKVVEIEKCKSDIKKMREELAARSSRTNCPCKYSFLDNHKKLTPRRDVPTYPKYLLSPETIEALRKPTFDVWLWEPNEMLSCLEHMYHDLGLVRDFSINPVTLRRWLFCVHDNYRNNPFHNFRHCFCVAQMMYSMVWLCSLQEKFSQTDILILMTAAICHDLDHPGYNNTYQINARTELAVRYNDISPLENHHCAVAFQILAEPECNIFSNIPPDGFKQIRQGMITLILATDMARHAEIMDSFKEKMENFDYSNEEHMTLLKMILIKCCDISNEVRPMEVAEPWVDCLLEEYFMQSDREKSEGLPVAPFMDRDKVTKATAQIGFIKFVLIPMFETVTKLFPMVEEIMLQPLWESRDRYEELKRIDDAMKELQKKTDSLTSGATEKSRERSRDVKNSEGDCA

Row | Compound | inhibition at 10 µM [%] | IC50 [nM] | % inhibition of PDE9A2 (at 10 micromolar concentration) [%]
1 | O=c1[nH]c(Cc2ncccn2)nc2c1cnn2C1CCOCC1 [Example 66] | 91 | 101 to 1200 | 
2 | COc1ccccc1Cc1nc2c(cnn2C2CCN(C(=O)c3ccccc3)C2)c(=O)[nH]1 (racemic) [Example 170] | 75 | 101 to 1200 | 
3 | COc1ccc(C2CCCCC2Cc2nc3c(cnn3C3CCOCC3)c(=O)[nH]2)cn1 (racemic) [Example 40-4] | 92 | 101 to 1200 | 
4 | CN(C)C(=O)N1CCCC(n2ncc3c(=O)[nH]c(Cc4ccccc4)nc32)C1 (racemic) [Example 159] | 100 | 1 to 100 | 
5 | Cc1cccnc1Cc1nc2c(cnn2C2CCCOC2)c(=O)[nH]1 (racemic) [Example 100] | 93 | 101 to 1200 | 
6 | O=c1[nH]c(Cc2ccccn2)nc2c1cnn2C1CCOCC1 [Example 51] | 96 | 1 to 100 | 
7 | CC(=O)N1CCC(n2ncc3c(=O)[nH]c(CC4CCCC4)nc32)CC1 [Example 151] | 92 | 101 to 1200 | 
8 | COC(=O)N1CCCC(n2ncc3c(=O)[nH]c(Cc4ccccc4OC(F)(F)F)nc32)C1 (racemic) [Example 156] | 99 | 1 to 100 | 
9 | O=C(c1ccccc1)N1CCC(n2ncc3c(=O)[nH]c(CC4CCC4)nc32)C1 (racemic) [Example 171] | 100 | 101 to 1200 | 
10 | CC(C)Cc1nc2c(cnn2C2CCOCC2C)c(=O)[nH]1 (racemic) [Example 132-1] | 97 | 1 to 100 | 
11 | CC1COCCC1n1ncc2c(=O)[nH]c(CC3CCCC3)nc21 (racemic) [Example 132-5] |  | 1 to 100 | 100
12 | CCC(CC)Cc1nc2c(cnn2C2CCOC2)c(=O)[nH]1 (racemic) [Example 76] | 98 | 1 to 100 | 
13 | O=c1[nH]c(Cc2cccnc2)nc2c1cnn2C1CCOCC1 [Example 123] | 91 | 101 to 1200 | 
14 | O=C(c1ccccc1)N1CCC(n2ncc3c(=O)[nH]c(Cc4ccccc4)nc32)C1 (racemic) [Example 166] | 92 | 101 to 1200 | 
15 | CC1CC(n2ncc3c(=O)[nH]c(CC4CCCC4)nc32)CCO1 (racemic) [Example 117] |  | 1 to 100 | 97
16 | O=c1[nH]c(Cc2ccccc2OCC2CC2)nc2c1cnn2C1CCOCC1 [Example 55] | 97 | 1 to 100 | 
17 | COc1ccccc1Cc1nc2c(cnn2C2CCOCC2)c(=O)[nH]1 [Example 49] | 98 | 1 to 100 | 
18 | O=c1[nH]c(CC2CCCC2)nc2c1cnn2C1CCCNC1 (racemic) [Example 196] | 91 | 101 to 1200 | 
19 | O=C(c1ccccc1)N1CCC(n2ncc3c(=O)[nH]c(Cc4ccccc4OC(F)(F)F)nc32)C1 (racemic) [Example 169] | 86 | 101 to 1200 | 
20 | COc1ccc(Cc2nc3c(cnn3C3CCOCC3)c(=O)[nH]2)c(Cl)c1 [Example 40-2] | 100 | 1 to 100 | 
21 | O=c1[nH]c(Cc2ccccc2O[C@@H]2CCOC2)nc2c1cnn2C1CCOCC1 [Example 57] | 100 | 1 to 100 | 
22 | CCC(Cc1nc2c(cnn2C2CCOC2)c(=O)[nH]1)C(F)(F)F (mixture of isomers) [Example 77] | 89 | 101 to 1200 | 

Row | Compound | inhibition at 10 µM [%] | IC50 [nM] | % inhibition of PDE9A2 (at 10 micromolar concentration) [%]
23 | CCC(Cc1nc2c(cnn2C2CCCN(C(=O)OC(C)(C)C)C2)c(=O)[nH]1)C(F)(F)F (racemic) [Example 21] | 97 | 101 to 1200 | 
24 | CC1COCCC1n1ncc2c(=O)[nH]c(CC3CCCC3)nc21 (racemic) [Example 132-2] | 100 | 1 to 100 | 
25 | COc1ccc(C#N)c(Cc2nc3c(cnn3C3CCOCC3)c(=O)[nH]2)c1 [Example 35] | 100 | 101 to 1200 | 
26 | CCC(C)Cc1nc2c(cnn2C2CCOC2)c(=O)[nH]1 (mixture of isomers) [Example 84] | 97 | 1 to 100 | 
27 | O=c1[nH]c(Cc2ccc(F)cc2)nc2c1cnn2C1CCOC1 (racemic) [Example 79] | 99 | 1 to 100 | 
28 | O=c1[nH]c(CC2CCCC2)nc2c1cnn2C1CCCN(CC(F)(F)F)C1 (racemic) [Example 191] | 92 | 101 to 1200 | 
29 | CN1CCCC(n2ncc3c(=O)[nH]c(Cc4ccccc4OC(F)(F)F)nc32)C1 (racemic) [Example 209] | 89 | 101 to 1200 | 
30 | O=c1[nH]c(Cn2cccn2)nc2c1cnn2C1CCOCC1 [Example 26] | 91 | 101 to 1200 | 
31 | CC(C)Cc1nc2c(cnn2C2CCOC(C)C2)c(=O)[nH]1 (racemic) [Example 115] |  | 101 to 1200 | 92
32 | CC(=O)N1CCCC(n2ncc3c(=O)[nH]c(CC4CCC4)nc32)C1 (racemic) [Example 180] | 96 | 101 to 1200 | 
33 | CC(C)(C)OC(=O)N1CCC(n2ncc3c(=O)[nH]c(CC4CCC4)nc32)C1 (racemic) [Example 16] | 86 | 101 to 1200 | 
34 | O=C(c1ccccc1)N1CCCC(n2ncc3c(=O)[nH]c(Cc4ccccc4OC(F)(F)F)nc32)C1 (racemic) [Example 163] | 97 | 101 to 1200 | 
35 | O=c1[nH]c(Cc2ncccc2C(F)(F)F)nc2c1cnn2C1CCOCC1 [Example 63] | 92 | 101 to 1200 | 
36 | CC(C)(C)OC(=O)N1CCCC(n2ncc3c(=O)[nH]c(Cc4ccccc4F)nc32)C1 (racemic) [Example 23] | 99 | 1 to 100 | 
37 | CC(C)(C)OC(=O)N1CCCC(n2ncc3c(=O)[nH]c(CC4CCC4)nc32)C1 (racemic) [Example 32] | 100 | 1 to 100 | 
38 | O=c1[nH]c(Cc2cccnc2)nc2c1cnn2C1CCOC1 (racemic) [Example 78] | 99 | 101 to 1200 | 
39 | CC(C)Cc1nc2c(cnn2C2CCCOC2)c(=O)[nH]1 (racemic) [Example 92] | 98 | 1 to 100 | 
40 | CC(C)Cc1nc2c(cnn2C2CCOC2)c(=O)[nH]1 (single isomer, unassigned) [Example 132-3] | 89 | 101 to 1200 | 
41 | COc1ccccc1Cc1nc2c(cnn2C2CCCOC2)c(=O)[nH]1 (racemic) [Example 127] | 97 | 1 to 100 | 
42 | O=c1[nH]c(CCC2CCC2)nc2c1cnn2C1CCOCC1 [Example 40-1] | 100 | 1 to 100 | 
43 | CCC(Cc1nc2c(cnn2C2CCCN(C(=O)c3ccccc3)C2)c(=O)[nH]1)C(F)(F)F (mixture of isomers) [Example 174] | 89 | 101 to 1200 | 
44 | CCOc1ccccc1Cc1nc2c(cnn2C2CCOC(C)(C)C2)c(=O)[nH]1 (racemic) [Example 105] | 84 | 101 to 1200 | 

Row | Compound | inhibition at 10 µM [%] | IC50 [nM] | % inhibition of PDE9A2 (at 10 micromolar concentration) [%]
45 | O=c1[nH]c(Cc2ccccc2F)nc2c1cnn2C1CCCNC1 (racemic) [Example 204] | 87 | 101 to 1200 | 
46 | COc1ccccc1Cc1nc2c(cnn2C2CCOC2)c(=O)[nH]1 (racemic) [Example 83] | 96 | 1 to 100 | 
47 | O=c1[nH]c(CC2CCCC2)nc2c1cnn2C1CCCOC1 (racemic) [Example 90] | 100 | 1 to 100 | 
48 | O=c1[nH]c(CC2CCC2)nc2c1cnn2C1CCNC1 (racemic) [Example 201] | 85 | 101 to 1200 | 
49 | Cc1cccnc1Cc1nc2c(cnn2C2CCOCC2)c(=O)[nH]1 [Example 56] | 95 | 1 to 100 | 
50 | CCC(Cc1nc2c(cnn2C2CCN(C)C2)c(=O)[nH]1)C(F)(F)F (mixture of isomers) [Example 213] | 86 | 101 to 1200 | 
51 | O=c1[nH]c(CC2CCCC2)nc2c1cnn2C1CCNCC1 [Example 195] | 88 | 101 to 1200 | 
52 | O=c1[nH]c(Cc2ccc(F)c(Cl)c2)nc2c1cnn2C1CCOCC1 [Example 137] | 99 | 1 to 100 | 
53 | CC(=O)N1CCC(n2ncc3c(=O)[nH]c(CC4CCCC4)nc32)C1 (racemic) [Example 165] | 99 | 101 to 1200 | 
54 | COc1cccnc1Cc1nc2c(cnn2C2CCOCC2)c(=O)[nH]1 [Example 67] | 95 | 101 to 1200 | 
55 | CC(=O)N1CCC(Oc2ccccc2Cc2nc3c(cnn3C3CCOCC3)c(=O)[nH]2)CC1 [Example 68] | 97 | 1 to 100 | 
56 | COc1ccc(Cc2nc3c(cnn3C3CCOCC3)c(=O)[nH]2)cc1 [Example 11] | 98 | 1 to 100 | 
57 | O=c1[nH]c(CC2CCCC2)nc2c1cnn2C1CCNC1 (racemic) [Example 194] | 97 | 101 to 1200 | 
58 | O=c1[nH]c(Cc2cccc(C(F)(F)F)n2)nc2c1cnn2C1CCOCC1 [Example 64] | 97 | 1 to 100 | 
59 | CCC(C)Cc1nc2c(cnn2C2CCCOC2)c(=O)[nH]1 (mixture of isomers) [Example 95] | 98 | 1 to 100 | 
60 | O=c1[nH]c(CC2CC2)nc2c1cnn2C1CCOC1 (racemic) [Example 80] | 94 | 1 to 100 | 
61 | O=c1[nH]c(Cc2ccccc2O[C@H]2CCOC2)nc2c1cnn2C1CCOCC1 [Example 58] | 96 | 1 to 100 | 
62 | O=c1[nH]c(CC2CC2)nc2c1cnn2C1CCOCC1 [Example 47] | 97 | 1 to 100 | 
63 | O=c1[nH]c(Cc2ccccc2OC(F)(F)F)nc2c1cnn2C1CCNC1 (racemic) [Example 200] | 91 | 101 to 1200 | 
64 | O=c1[nH]c(Cc2ccc(F)c(Br)c2)nc2c1cnn2C1CCOCC1 [Example 136] | 100 | 1 to 100 | 
